Results: patent US5585382A, “Polycyclic and heterocyclic chromophores for bis-imide tumoricidals” (The DuPont Merck Pharmaceutical Company, priority 1995, dated 1996)
In brackets after ≈: the same amount, converted by molar mass. Read-outs that look alike come from different tables or passages of the source.

How the values were obtained:
[1] = tested on: Murine leukemia L1210 cells; experiment: In vitro growth inhibition of L1210 cells (MTT, 72 hr); format: cell-based; details: Mus musculus, read-out: L1210 IC50
Method: (§1) The reagents for tissue culture were purchased from GIBCO (Grand Island, N.Y.). 5-Dimethylthiazol-2-yl)-2,5-diphenyl tetrazolium bromide (MTT) was purchased from Sigma Chemical Company (St. Louis, Mo.). All agents were prepared as 2 mg/ml stock solutions in DMSO. MTT was prepared as a 1 mg/ml stock solution in Dulbecco's phosphate buffered saline (PBS). All stocks were stored frozen in the dark at -20° C.
(§2) Clone A human colon cancer cells were isolated from the heterogeneous DLD-1 colon tumor line and maintained as previously described (Dexter, D. L.; Barbosa, J. A.; Calabresi, P. Cancer Research 1979, 39, 1020; Dexter, D. L.; Spremulli, E. M.; Fligiel, A.; Barbosa, J. A.; Vogel, R.; Van Vorhees, A.; Calabresi, P. Am. J. Med. 1981, 71, 949.). Murine leukemia L1210 cells were maintained in RPMI-L medium as described (Chen, S.-F.; Ruben, R. L.; Dexter, D. L. Cancer Research 1986, 46, 5014.). All cell lines were incubated at 37° C. in a humidified atmosphere of 5% CO2 -95% air.
(§3) Exponentially growing L1210 cells (1×10^3), or Clone A cells (8×10^2) in 0.1 ml medium were seeded in a 96-well microtiter plate on day 0. On day one, 0.1 ml aliquots of medium containing graded concentrations of test compounds were added to the cell plates. After incubation at 37° C. in a humidified incubator for 72 hr, the plates containing L1210 cells were centrifuged briefly and 100 μl of the growth medium was removed. Cell cultures were incubated with 50 μl of MTT for 4 h at 37° C. (12). The resulting purple formazan precipitate was solubilized with 200 μl of 0.04 N HCl in isopropyl alcohol. Absorbance was read in a Titertek Multiskan MCC scanning well spectrophotometer (Flow Laboratories) at a test wavelength of 570 nm and a reference wavelength of 630 nm. The absorbances were stored on a floppy disk on an IBM-XT and uploaded onto a VAX computer. IC50 values were determined by a computer program that fit the data to the following equation:
(§4) Y=((Am -Ao)/(1+(X/IC50)^n))+Ao
(§5) where Am =absorbance of the control cells; Ao =absorbance of the cells in the presence of highest compound concentration; Y=observed absorbance; X=compound concentration; IC50 =dose of compound that inhibits the number of population doublings of cells to one half that of the number of population doublings of the control cells; and n equals the slope of the straight portion of the curve.
(§6) The values reported in the table are from at least one experiment performed in eight replicates. If more than one experiment was performed, the number reported is the average of all the trials

[2] = tested on: Clone A human colon cancer cells; experiment: In vitro growth inhibition of Clone A cells (MTT, 72 hr); format: cell-based; details: read-out: Clone A IC50
Method: as §1, §2, §3, §4, §5, §6

[3] = tested on: MX-1 human mammary carcinoma; experiment: In vivo human tumor xenograft MX-1 in nude mice; details: for Tumor Growth Inhibition activity against MX-1 (in words): i.v. once daily for nine days, nude mice, NCI criteria
Text: The DLD-2 human colon tumor and MX-1 human mammary carcinoma, were originally obtained from a surgically-removed primary colon carcinoma or breast tumor respectively. The human tumor lines were maintained by serial passage in athymic nude mice. The MX-1 human mammary carcinoma is an established tumor used by the NCI. The DLD-2 human colon tumor has been well characterized. (Dexter, D. L.; Spremulli, E. N.; Matook, G. M.; Diamond, I.; Calabresi, P. Cancer Research 1982, 42, 5010; Dexter, D. L.; Barbosa, J. A.; Calabresi, P. Cancer Research 1979, 39, 1020.)
The mice used in these experiments were outbred Swiss mice or CD-1 mice bearing the nude (nu/nu) gene. On Day 0, male and female mice weighing 22-30 g are inoculated with 0.2 mL of a 25% tumor mince. This mince is prepared by mincing fresh tumor tissue, grown subcutaneously in passage mice, in sterile physiological saline. Palpable tumors weighing approximately 50 mg appear in the mice within 7-10 days after inoculation. The mice are pair matched by tumor weight and sex into groups of ten each and the test compounds and vehicle control are administered intravenously (i.v.) once daily for nine consecutive days. A >20% decrease in body weight on Day 5 following compound administration is considered an indication of toxicity. Tumor measurements and body weights are recorded once a week. Fifteen to eighteen days after the initial injection the mice are weighed, sacrificed, and the tumors excised and weighed.
The efficacy of the test compounds is determined by the extent of tumor growth inhibition in treated versus vehicle-treated control mice. Initial tumor weights (mg) are calculated from the tumor dimensions (mm) obtained from caliper measurements, using the formula for a prolate ellipsoid (mg of tumor weight=(length×width^2)/2). Net tumor weights are calculated for each of the treated groups and the vehicle-treated control group by subtracting the initial tumor weight from the final tumor weight (Day 15-18). Results are expressed as a percentage decrease relative to the mean tumor weight for the control vehicle-treated group.
Tumor Growth Inhibition= [formula]
The evaluation criteria of the National Cancer Institute for activity in in vivo cancer models were used. Tumor growth inhibition of 58-89% against the various xenografts is considered moderate activity, and inhibition of ≥90% is considered good to excellent activity. Actual tumor regressions (IR=incomplete regression; FR=full regression) indicate excellent to outstanding activity.

[4] = Mus musculus, iv, 216 h, read-out: MX-1 percent tumor growth inhibition

SMILES	IC50 ([1]; L1210, 72 h) [µg/mL]	IC50 ([2]; 72 h) [µg/mL]	inhibition in vivo at 12.5 mg/kg [3, 4] [%]	Tumor Growth Inhibition activity against MX-1 (in words) [3]	solubility (Solubility in water) [µg/mL]	inhibition in vivo at 6.2 mg/kg [3, 4] [%]	responders at 6.2 mg/kg ([3]; Mus musculus, iv, 216 h, read-out: MX-1 tumor regressions, IR=incomplete regression) [%]	IC50 ([1]; L1210 cells, 72 hr, MTT) [µg/mL]	IC50 ([2]; Clone A cells, 72 hr, MTT) [µg/mL]
CS(=O)(=O)O.CS(=O)(=O)O.O=C1c2cc([N+](=O)[O-])cc3c2c(cc2cccnc23)C(=O)N1CCNCCNCCN1C(=O)c2cc([N+](=O)[O-])cc3c2c(cc2cccnc23)C1=O [Example 6, 1,2-bis-[2-(3-Nitro-5-azaphenanthrene-1,10-dicarboximido)ethylamino]ethane Dihydromethanesulfonate]	0.041	0.005	81	moderate to excellent	330	–	–	–	–
CS(=O)(=O)O.CS(=O)(=O)O.C[C@@H](CN1C(=O)c2cc([N+](=O)[O-])cc3c2c(cc2cccnc23)C1=O)NCCN[C@@H](C)CN1C(=O)c2cc([N+](=O)[O-])cc3c2c(cc2cccnc23)C1=O [Example 20, (S,S)-1,2-bis-[2-(3-Nitro-5-azaphenanthrene-1, 10-dicarboximido)-1-methylethylamino]ethane Dihydromethanesulfonate]	0.012	–	–	moderate to excellent	3330	95	11.1	–	–
CC[C@H](CNCCNC[C@@H](CC)N1C(=O)c2cc([N+](=O)[O-])cc3c2c(cc2cc(C)cnc23)C1=O)N1C(=O)c2cc([N+](=O)[O-])cc3c2c(cc2cc(C)cnc23)C1=O [Example 24]	–	–	–	–	150 (≈ 192 µM)	–	–	0.13 (≈ 0.166 µM)	0.022 (≈ 0.0281 µM)
Cc1cnc2c(c1)cc1c3c(cc([N+](=O)[O-])cc32)C(=O)N(C[C@H](C)NCCN[C@@H](C)CN2C(=O)c3cc([N+](=O)[O-])cc4c3c(cc3cc(C)cnc34)C2=O)C1=O [Example 26]	0.018 (≈ 0.0238 µM)	0.012 (≈ 0.0159 µM)	–	–	–	22	–	–	–
CS(=O)(=O)O.O=C1c2cccc3c2c(cc2ccccc23)C(=O)N1CCCCNCCCN1C(=O)c2cccc3c2c(cc2ccccc23)C1=O [Example 40, 4-[3-(Phenanthrene-1, 10-dicarboximido)propylamino]-1-(phenanthrene-1, 10-dicarboximido) butane Hydromethanesulfonate]	0.098	0.412	–	–	60	–	–	–	–
CS(=O)(=O)O.Cc1cccc2c1cc1c3c(cccc32)C(=O)N(CCCCNCCCN2C(=O)c3cccc4c3c(cc3c(C)cccc34)C2=O)C1=O [Example 42, 4-[3-(8-Methylphenanthrene-1,10-dicarboximido)propylamino]-1-(8-methylphenanthrene-1, 10-dicarboximido)butane Hydromethanesulfonate]	0.137	0.271	–	–	60	–	–	–	–
CS(=O)(=O)O.Cc1c2c3c(cccc3c3ccccc13)C(=O)N(CCCCNCCCN1C(=O)c3cccc4c3c(c(C)c3ccccc34)C1=O)C2=O [Example 43, 4-[3-(9-Methylphenanthrene-1,10-dicarboximido)propylamino]-1-(9-methylphenanthrene-1, 10-dicarboximido)butane Hydromethanesulfonate]	0.357	0.4	–	–	40	–	–	–	–
CS(=O)(=O)O.O=C1c2cccc3c2c(cc2ccc(C(F)(F)F)cc23)C(=O)N1CCCCNCCCN1C(=O)c2cccc3c2c(cc2ccc(C(F)(F)F)cc23)C1=O [Example 44, 4-(3-[6-(Trifluoromethyl)phenanthrene-1,10-dicarboximido]propylamino)-1-[6-(trifluoromethyl)phenanthrene-1, 10dicarboximido]butane Hydromethanesulfonate]	0.888	1.01	–	–	270	–	–	–	–
CS(=O)(=O)O.Cc1ccc2c(C)c3c4c(cccc4c2c1)C(=O)N(CCCCNCCCN1C(=O)c2cccc4c2c(c(C)c2ccc(C)cc24)C1=O)C3=O [Example 46, 4-[3-(6,9-Dimethylphenanthrene-1,10-dicarboximido)propylamino]-1-(6,9-dimethylphenanthrene-1, 10-dicarboximido)butane Hydromethanesulfonate]	0.414	0.958	–	–	40	–	–	–	–
CCc1ccc2cc3c4c(cccc4c2c1)C(=O)N(CCCCNCCCN1C(=O)c2cccc4c2c(cc2ccc(CC)cc24)C1=O)C3=O.CS(=O)(=O)O [Example 47, 4-[3-(6-Ethylphenanthrene-1, 10-dicarboximido)propylamino]-1-(6-ethylphenanthrene-1, 10-dicarboximido)butane Hydromethanesulfonate]	0.378	0.763	–	–	150	–	–	–	–
CS(=O)(=O)O.O=C1c2cccc3c2c(cc2ccc(F)cc23)C(=O)N1CCCCNCCCN1C(=O)c2cccc3c2c(cc2ccc(F)cc23)C1=O [Example 56, 4-[3-(6-Fluorophenanthrene-1,10-dicarboximido)propylamino]-1-(6-fluorophenanthrene-1,10-dicarboximido)butane Hydromethanesulfonate]	0.365	0.222	–	–	40	–	–	–	–
CS(=O)(=O)O.O=C1c2cccc3c2c(cc2ccoc23)C(=O)N1CCCCNCCCN1C(=O)c2cccc3c2c(cc2ccoc23)C1=O [Example 80, 4-[3-(Naphtho[1,2-b]furan-5,6-dicarboximido)propylamino]-1-(naphtho[1,2-b]furan-5,6-dicarboximido)butane Hydromethanesulfonate]	–	–	–	–	420	–	–	0.389	0.635
CS(=O)(=O)O.CS(=O)(=O)O.CS(=O)(=O)O.Cc1nc2cc3c4c(cccc4c2[nH]1)C(=O)N(CCCCNCCCN1C(=O)c2cccc4c2c(cc2nc(C)[nH]c24)C1=O)C3=O [Example 81, 4-[3-(2-Methyl-1H-naphth[1,2-d]imidazole-5,6-dicarboximido)propylamino]-1-(2-methyl-1H-naphth[1,2-d]imidazole-5,6-dicarboximido)butane Trihydromethanesulfonate]	–	–	–	–	7600	–	–	0.201	22.2
CS(=O)(=O)O.Cc1nc2cc3c4c(cccc4c2s1)C(=O)N(CCCCNCCCN1C(=O)c2cccc4c2c(cc2nc(C)sc24)C1=O)C3=O [Example 82, 4-[3-(2-Methylnaphtho[2,1-d]thiazole-5,6-dicarboximido)propylamino]-1-(2-methylnaphtho[2,1-d]thiazole-5,6-dicarboximido)butane Hydromethanesulfonate]	–	–	–	–	4500	–	–	0.082	0.068
